Activity and Ki data for 14 compounds are collected here from ChEMBL document CHEMBL1687939 (J Med Chem, 2011).

Activity calls are given as the source filed them. No cut-off for these calls is given here.

Data set [1] relates to 4T1. The experiment in a line: Antimetastatic activity against mouse 4T1 cells expressing luciferase xenografted in BALB/c mouse assessed as reduction in metastasic burden in lungs at 15 to 30 mg/kg, ip qd administered 24 hrs after challenge for 5 days measured 24 hrs post last dose by bioluminescent technique relative to control. Format: functional, organism-based.
The next data set has as its target Carbonic anhydrase 12 (Homo sapiens, UniProt O43570).
In data set [2] the test system is Mus musculus. In words: Toxicity in BALB/c mouse assessed as body weight loss at 15 to 30 mg/kg, ip qd for 5 days. Type of data set: organism-based. Further details: dose 15-30 mg/kg, route intraperitoneal. The following applies: in vivo, 120 h.
A further data set addresses Carbonic anhydrase 9 (Homo sapiens, UniProt Q16790).
The next data set deals with Carbonic anhydrase 1 (Homo sapiens, UniProt P00915).
Data set [3] concerns Mus musculus. The experiment in a line: Toxicity in BALB/c mouse assessed as body weight loss at 15 to 45 mg/kg, ip qd administered as 3 doses on alternate days. Format: organism-based. Further details: dose 15-45 mg/kg, route intraperitoneal. The following applies: in vivo.
The test system of data set [4] is 4T1. In words: Antimetastatic activity against mouse 4T1 cells expressing luciferase xenografted in BALB/c mouse assessed as limiting colonization of the cells in the lungs at 15 to 45 mg/kg, ip administered as 3 doses on alternate days measured 24 hrs post last dose by bioluminescent technique relative to control. Format: functional, organism-based.

Chain of Carbonic anhydrase 12 (O43570 whole entry): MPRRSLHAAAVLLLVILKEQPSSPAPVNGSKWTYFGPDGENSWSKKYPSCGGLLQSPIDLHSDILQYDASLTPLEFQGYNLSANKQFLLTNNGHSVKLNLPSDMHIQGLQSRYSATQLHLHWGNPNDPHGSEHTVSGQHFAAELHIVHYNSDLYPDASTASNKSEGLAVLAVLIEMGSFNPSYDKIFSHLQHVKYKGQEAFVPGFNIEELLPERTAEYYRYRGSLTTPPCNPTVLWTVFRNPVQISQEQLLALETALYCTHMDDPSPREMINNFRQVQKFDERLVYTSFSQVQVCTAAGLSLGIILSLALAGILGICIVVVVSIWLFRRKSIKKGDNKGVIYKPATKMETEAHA
Chain of Carbonic anhydrase 1 (P00915 whole entry): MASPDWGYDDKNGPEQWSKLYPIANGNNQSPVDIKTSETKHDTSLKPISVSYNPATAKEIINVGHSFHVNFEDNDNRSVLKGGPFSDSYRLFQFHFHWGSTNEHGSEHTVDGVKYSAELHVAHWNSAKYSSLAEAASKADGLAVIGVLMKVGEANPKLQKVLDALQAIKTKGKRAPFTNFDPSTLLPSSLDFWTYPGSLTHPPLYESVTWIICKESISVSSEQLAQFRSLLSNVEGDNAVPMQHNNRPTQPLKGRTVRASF
Description for Carbonic anhydrase 12: Inhibition of tumor-associated human carbonic anhydrase 12 preincubated for 15 min by CO2 hydration assay
Description for Carbonic anhydrase 9: Inhibition of tumor-associated human carbonic anhydrase 9 preincubated for 15 min by CO2 hydration assay

What is called Ki is a measure of affinity in units of concentration, obtained from inhibition or displacement. A lower Ki goes with tighter binding. `CC(=O)c1ccc(NC(=O)Nc2ccc(S(N)(=O)=O)cc2)cc1`: in the data set with 4T1 [1], the result was inactive. In addition, the Ki at Carbonic anhydrase 12 was 4.6 nM. Also, in the data set on Mus musculus [2], the Activity result is listed as “Non-toxic”.
As to `CC(C)c1ccccc1NC(=O)Nc1ccc(S(N)(=O)=O)cc1`, the Ki at Carbonic anhydrase 12 was determined as 4.2 nM; on Carbonic anhydrase 9, 0.5 nM.
Take `NS(=O)(=O)c1ccc(NC(=O)Nc2ccc(Oc3ccccc3)cc2)cc1`: the Ki on Carbonic anhydrase 1 is 604 nM; at Carbonic anhydrase 12, 7.1 nM; on Carbonic anhydrase 9, 69.1 nM.
For the compound `CCCCc1ccc(NC(=O)Nc2ccc(S(N)(=O)=O)cc2)cc1`, the Ki at Carbonic anhydrase 12 was determined as 28.5 nM; on Carbonic anhydrase 9, 376 nM.
With `COc1ccc(NC(=O)Nc2ccc(S(N)(=O)=O)cc2)c(C)c1`, the affinity at Carbonic anhydrase 12 corresponds to a Ki of 6 nM.
As to `NS(=O)(=O)c1ccc(NC(=O)Nc2cccc([N+](=O)[O-])c2)cc1`, the Activity entry in the data set on Mus musculus [3] is “Non-toxic”; in the data set on 4T1 [4], “Dose-dependent effect”. On Carbonic anhydrase 9, the Ki was found to be 0.9 nM.
`N#Cc1ccc(NC(=O)Nc2ccc(S(N)(=O)=O)cc2)cc1`: the figures for the Ki at Carbonic anhydrase 1, on Carbonic anhydrase 12 and on Carbonic anhydrase 9 were 57 nM, 6.5 nM and 6 nM, respectively.
For `CC(C)c1ccc(NC(=O)Nc2ccc(S(N)(=O)=O)cc2)cc1`, the results for the Ki at Carbonic anhydrase 12 and on Carbonic anhydrase 9 were 49.7 nM and 541 nM, respectively.
For the compound `COc1ccccc1NC(=O)Nc1ccc(S(N)(=O)=O)cc1`, the Ki at Carbonic anhydrase 1 came out at 92 nM; on Carbonic anhydrase 12 it was 61.2 nM; at Carbonic anhydrase 9 it was 465 nM.
For the compound `NS(=O)(=O)c1ccc(NC(=O)Nc2ccc(Br)cc2)cc1`, the Ki was 7.9 nM at Carbonic anhydrase 12 and 69.3 nM on Carbonic anhydrase 9.
On to `CCCCOc1ccc(NC(=O)Nc2ccc(S(N)(=O)=O)cc2)cc1`, for which the results for the Ki at Carbonic anhydrase 12 and on Carbonic anhydrase 9 were 2.5 nM and 0.8 nM, respectively.
The like results for `NS(=O)(=O)c1ccc(NC(=O)Nc2ccc(I)cc2)cc1` were, in that order, 4.3 nM and 24.5 nM.
`NS(=O)(=O)c1ccc(NC(=O)Nc2ccc(Cl)cc2)cc1` had a Ki on Carbonic anhydrase 12 of 5.3 nM.
For `N#Cc1ccccc1NC(=O)Nc1ccc(S(N)(=O)=O)cc1`, the Ki on Carbonic anhydrase 1 turned out to be 10.9 nM; at Carbonic anhydrase 12 it was 4.6 nM; at Carbonic anhydrase 9, 0.3 nM.
